Bounds are passed on as bounds.

For the experiment, the target named is T1, full-length human PKCι (Homo sapiens, UniProt P41743).
T1 construct: Recombinant, full-length human PKCι expressed in Sf21 insect cells is also commercially available; purchased; host or cells: Sf21 insect cells
T1 sequence (P41743 1-596): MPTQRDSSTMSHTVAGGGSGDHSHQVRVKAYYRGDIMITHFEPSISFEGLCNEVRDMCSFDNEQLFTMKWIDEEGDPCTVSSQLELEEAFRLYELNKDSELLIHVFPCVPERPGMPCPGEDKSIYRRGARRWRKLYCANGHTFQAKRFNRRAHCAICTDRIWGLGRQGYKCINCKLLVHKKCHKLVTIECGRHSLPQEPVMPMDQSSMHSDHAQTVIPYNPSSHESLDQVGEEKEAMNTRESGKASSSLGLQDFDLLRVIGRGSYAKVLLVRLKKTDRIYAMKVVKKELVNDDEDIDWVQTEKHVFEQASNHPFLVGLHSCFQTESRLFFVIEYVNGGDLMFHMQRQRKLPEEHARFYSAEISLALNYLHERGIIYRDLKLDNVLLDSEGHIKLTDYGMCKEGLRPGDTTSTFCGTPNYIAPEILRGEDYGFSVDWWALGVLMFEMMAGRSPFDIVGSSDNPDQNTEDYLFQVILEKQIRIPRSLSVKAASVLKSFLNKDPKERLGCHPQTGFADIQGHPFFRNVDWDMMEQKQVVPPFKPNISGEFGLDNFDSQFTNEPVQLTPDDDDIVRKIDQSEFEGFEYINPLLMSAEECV
Put plainly: PKCι IC50 IMAP assay, full-length PKCι at 150 μM ATP. The format is biochemical. To be noted: read-out: IC50 in IMAP assay against full length PKCi at 150 μM ATP. A digest of the protocol: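 IMAP fluorescence polarisation (ex 485/em 530 nm) read-out; % inhibition set from no-compound (0%) and no-enzyme (100%) controls, IC50 from dose-response curve fit. Sf21-expressed full-length enzyme ~15 pM, 100 nM FAM peptide, ATP 150 μM (5× KM^APP), 60 min at RT.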
With `Cc1ccnc(Nc2cc(-c3nc(N4CCNCC4)c4c(C5CC5)cncc4n3)ccn2)c1` [Example 267, [4-(5-Cyclopropyl-4-piperazin-1-yl-pyrido[3,4-d]pyrimidin-2-yl)-pyridin-2-yl]-(4-methyl-pyridin-2-yl)-amine], the IC50 (commonly the concentration needed to halve the response being measured) was less than 100 nM.

Consider `Fc1cccc(Nc2cc(-c3nc(N4CCNC(C(F)(F)F)C4)c4c(C5CC5)cncc4n3)ccn2)n1` (centres unmarked) [Example 268, {4-[5-Cyclopropyl-4-(3-trifluoromethyl-piperazin-1-yl)-pyrido[3,4-d]pyrimidin-2-yl]-pyridin-2-yl}-(6-fluoro-pyridin-2-yl)-amine], for which the IC50 lay within 100 to 1000 nM.

Turning to `FC(F)(F)c1ccnc(Nc2cc(-c3nc(N4CCNCC4)c4c(C5CC5)cncc4n3)ccn2)c1` [Example 269, [4-(5-Cyclopropyl-4-piperazin-1-yl-pyrido[3,4-d]pyrimidin-2-yl)-pyridin-2-yl]-(4-trifluoromethyl-pyridin-2-yl)-amine], the IC50 is less than 100 nM.

As for `FC(F)(F)c1ccc(Nc2cc(-c3nc(N4CCNCC4)c4c(C5CC5)cncc4n3)ccn2)cn1` [Example 270, [4-(5-Cyclopropyl-4-piperazin-1-yl-pyrido[3,4-d]pyrimidin-2-yl)-pyridin-2-yl]-(6-trifluoromethyl-pyridin-3-yl)-amine], the IC50 was in the range of 100 to 1000 nM.

For the compound `Fc1ccc(Nc2cc(-c3nc(N4CCNCC4)c4c(C5CC5)cncc4n3)ccn2)nc1` [Example 271, [4-(5-Cyclopropyl-4-piperazin-1-yl-pyrido[3,4-d]pyrimidin-2-yl)-pyridin-2-yl]-(5-fluoro-pyridin-2-yl)-amine], the IC50 is less than 100 nM.

For `Cc1nc(Nc2cc(-c3nc(N4CCNCC4)c4c(C5CC5)cncc4n3)ccn2)oc1C` [Example 272, [4-(5-Cyclopropyl-4-piperazin-1-yl-pyrido[3,4-d]pyrimidin-2-yl)-pyridin-2-yl]-(4,5-dimethyl-oxazol-2-yl)-amine], the half-inhibitory concentration (IC50) was less than 100 nM.

Turning to `c1ccc(Nc2cc(-c3nc(N4CCN[C@@H](C5CC5)C4)c4c(C5CC5)cncc4n3)ccn2)cc1` [Example 273, {4-[5-Cyclopropyl-4-((S)-3-cyclopropyl-piperazin-1-yl)-pyrido[3,4-d]pyrimidin-2-yl]-pyridin-2-yl}-phenyl-amine], the IC50 is less than 100 nM.

For `OC1CCN(c2nc(-c3ccnc(Nc4ccccc4F)c3)nc3cncc(C4CC4)c23)CC1` [Example 274, 1-{5-Cyclopropyl-2-[2-(2-fluoro-phenylamino)-pyridin-4-yl]-pyrido[3,4-d]pyrimidin-4-yl}-piperidin-4-ol], the IC50 was 100 to 1000 nM.

With `CC(C)[C@H]1CN(c2nc(-c3ccnc(Nc4ccccc4)c3)nc3cncc(C4CC4)c23)CCN1` [Example 275, {4-[5-Cyclopropyl-4-((S)-3-isopropyl-piperazin-1-yl)-pyrido[3,4-d]pyrimidin-2-yl]-pyridin-2-yl}-phenyl-amine], the IC50 is less than 100 nM.

Turning to `Fc1ccccc1Nc1cc(-c2nc(N3CCN[C@@H](C4CC4)C3)c3c(C4CC4)cncc3n2)ccn1` [Example 276, {4-[5-Cyclopropyl-4-((S)-3-cyclopropyl-piperazin-1-yl)-pyrido[3,4-d]pyrimidin-2-yl]-pyridin-2-yl}-(2 fluoro-phenyl)-amine], the IC50 is less than 100 nM.

Turning to `Fc1cccc(Nc2cc(-c3nc(N4CCN[C@@H](C5CC5)C4)c4c(C5CC5)cncc4n3)ccn2)n1` [Example 277, {4-[5-Cyclopropyl-4-((S)-3-cyclopropyl-piperazin-1-yl)-pyrido[3,4-d]pyrimidin-2-yl]-pyridin-2-yl}-(6-fluoro-pyridin-2-yl)-amine], the IC50 was less than 100 nM.

Turning to `CC(F)(F)C1CN(c2nc(-c3ccnc(Nc4ccccc4)c3)nc3cncc(C4CC4)c23)CCN1` (centres unmarked) [Example 278, (4-{5-Cyclopropyl-4-[3-(1,1-difluoro-ethyl)-piperazin-1-yl]-pyrido[3,4-d]pyrimidin-2-yl}-pyridin-2-yl)-phenyl-amine], the IC50 fell in the range of 10000 to 40000 nM.

Consider `c1ccc(Nc2cc(-c3nc(N4CCNCC4)c4c(C5CC5)cncc4n3)ccn2)cc1` [Example 279, [4-(5-Cyclopropyl-4-piperazin-1-yl-pyrido[3,4-d]pyrimidin-2-yl)-pyridin-2-yl]-phenyl-amine], for which the IC50 is less than 100 nM.

For `N#CC[C@H]1CN(c2nc(-c3ccnc(Nc4ccccc4)c3)nc3cncc(C4CC4)c23)CCN1` [Example 280, {(S)-4-[5-Cyclopropyl-2-(2-phenylamino-pyridin-4-yl)-pyrido[3,4-d]pyrimidin-4-yl]-piperazin-2-yl}-acetonitrile], the IC50 was less than 100 nM.

Consider `c1cc(-c2nc(N3CCNCC3)c3c(C4CC4)cncc3n2)cc(NC2CCCC2)n1` [Example 281, Cyclopentyl-[4-(5-cyclopropyl-4-piperazin-1-yl-pyrido[3,4-d]pyrimidin-2-yl)-pyridin-2-yl]-amine], for which the IC50 is less than 100 nM.

With `c1cc(-c2nc(N3CCNCC3)c3c(C4CC4)cncc3n2)cc(NC2CCCCC2)n1` [Example 282, Cyclohexyl-[4-(5-cyclopropyl-4-piperazin-1-yl-pyrido[3,4-d]pyrimidin-2-yl)-pyridin-2-yl]-amine], the IC50 was less than 100 nM.

For the compound `c1cc(-c2nc(N3CCNCC3)c3c(C4CC4)cncc3n2)cc(NC2CCOCC2)n1` [Example 283, [4-(5-Cyclopropyl-4-piperazin-1-yl-pyrido[3,4-d]pyrimidin-2-yl)-pyridin-2-yl]-(tetrahydro-pyran-4-yl)-amine], the IC50 was less than 100 nM.

As for `FC(F)(F)C1CN(c2nc(-c3ccnc(NC4CCCC4)c3)nc3cncc(C4CC4)c23)CCN1` (centres unmarked) [Example 284, Cyclopentyl-{4-[5-cyclopropyl-4-(3-trifluoromethyl-piperazin-1-yl)-pyrido[3,4-d]pyrimidin-2-yl]-pyridin-2-yl}-amine], the 50% inhibitory concentration (IC50) is 100 to 1000 nM.

Consider `c1cc(-c2nc(N3CCNCC3)c3c(C4CC4)cncc3n2)cc(NC23CC4CC(CC(C4)C2)C3)n1` [Example 285, Adamantan-1-yl-[4-(5-cyclopropyl-4-piperazin-1-yl-pyrido[3,4-d]pyrimidin-2-yl)-pyridin-2-yl]-amine], for which the IC50 was less than 100 nM.

For the compound `Nc1ccccc1C(=O)Nc1cc(-c2nc(N[C@@H]3CCNC3)c3ccncc3n2)ccn1` [Example 303, 2-Amino-N-{4-[4-((R)-pyrrolidin-3-ylamino)-pyrido[3,4-d]pyrimidin-2-yl]-pyridin-2-yl}-benzamide], the IC50 lay within 100 to 1000 nM.

Consider `NC(=O)c1ccc(Nc2cc(-c3nc(N[C@@H]4CCNC4)c4ccncc4n3)ccn2)cc1` [Example 304, 4-{4-[4-((R)-Pyrrolidin-3-ylamino)-pyrido[3,4-d]pyrimidin-2-yl]-pyridin-2-ylamino}-benzamide], for which the IC50 was 100 to 1000 nM.

Turning to `Nc1ccc(C(=O)Nc2cc(-c3nc(N[C@@H]4CCNC4)c4ccncc4n3)ccn2)cc1` [Example 305, 4-Amino-N-{4-[4-((R)-pyrrolidin-3-ylamino)-pyrido[3,4-d]pyrimidin-2-yl]-pyridin-2-yl}-benzamide], the IC50 was 100 to 1000 nM.

As for `c1ccc(Nc2cc(-c3nc(N4C[C@@H]5C[C@H]4CN5)c4ccncc4n3)ccn2)cc1` [Example 306, {4-[(1S,4S)-4-(2,5-Diaza-bicyclo[2.2.1]hept-2-yl)-pyrido[3,4-d]pyrimidin-2-yl]-pyridin-2-yl}-phenyl-amine], the IC50 lay in the range of 1000 to 10000 nM.

Take `O=C(Nc1cc(-c2nc(N[C@@H]3CCNC3)c3ccncc3n2)ccn1)c1cnccn1` [Example 307, Pyrazine-2-carboxylic acid {4-[4-((R)-pyrrolidin-3-ylamino)-pyrido[3,4-d]pyrimidin-2-yl]-pyridin-2-yl}-amide]: the IC50 is 100 to 1000 nM.

For `NC(=O)c1cccc(Nc2cc(-c3nc(N[C@@H]4CCNC4)c4ccncc4n3)ccn2)c1` [Example 308, 3-{4-[4-((R)-Pyrrolidin-3-ylamino)-pyrido[3,4-d]pyrimidin-2-yl]-pyridin-2-ylamino}-benzamide], the IC50 lay in the range of 100 to 1000 nM.

For the compound `Nc1cccc(C(=O)Nc2cc(-c3nc(N[C@@H]4CCNC4)c4ccncc4n3)ccn2)c1` [Example 309, 3-Amino-N-{4-[4-((R)-pyrrolidin-3-ylamino)-pyrido[3,4-d]pyrimidin-2-yl]-pyridin-2-yl}-benzamide], the IC50 is 100 to 1000 nM.

Take `NC(=O)COc1ccc(Nc2cc(-c3nc(N[C@@H]4CCNC4)c4ccncc4n3)ccn2)cc1` [Example 310, 2-(4-{4-[4-((R)-Pyrrolidin-3-ylamino)-pyrido[3,4-d]pyrimidin-2-yl]-pyridin-2-ylamino}-phenoxy)-acetamide]: the IC50 was in the range of 100 to 1000 nM.

For the compound `NC(=O)COc1cccc(Nc2cc(-c3nc(N[C@@H]4CCNC4)c4ccncc4n3)ccn2)c1` [Example 311, 2-(3-{4-[4-((R)-Pyrrolidin-3-ylamino)-pyrido[3,4-d]pyrimidin-2-yl]-pyridin-2-ylamino}-phenoxy)-acetamide], the IC50 is less than 100 nM.

On to `NC(=O)Cc1ccc(Nc2cc(-c3nc(N[C@@H]4CCNC4)c4ccncc4n3)ccn2)cc1` [Example 313, 2-(4-{4-[4-((R)-Pyrrolidin-3-ylamino)-pyrido[3,4-d]pyrimidin-2-yl]-pyridin-2-ylamino}-phenyl)-acetamide], for which the IC50 was less than 100 nM.

The values above are taken from patent US9914730B2, “Azaquinazoline inhibitors of Atypical protein Kinase C” (Ignyta, Inc., priority 2012, dated 2018).
